The values that follow come from publication PMC6556873, “Rapid Covalent-Probe Discovery by Electrophile-Fragment Screening” (Journal of the American Chemical Society, 2019).

One series concerns the target T1, BSA (Bos taurus, UniProt P02769).
T1 construct: gene ALB
Further details: Intact protein LC/MS covalent labelling, fragments in pools of five, 200 uM each, 4 °C. Particulars: 24 h, 4 °C, pool of five; 200 µM; covalent. Here is the method: (§1) Incubations were performed at 200 μM for each compound and 2 μM of protein (10 μM for BSA) for 24 h at 4 °C with moderate shaking. Incubation buffers varied among proteins (PBS pH 7.4 for QSOX1 and BSA; 10 mM HEPES pH 7.5, 0.3 M NaCl, 0.5 mM TCEP for PCAF, UPS8, and NUDT7; […]; 10 mM Na2HPO4 pH 7.5 100 mM NaCl 5 mM β-mercaptoethanol for NV3CP; 20 mM Na phosphate pH 7.5 for NNMT; […]. The reaction was stopped by quenching with formic acid, 0.4% final concentration. Each protein was incubated with the electrophilic library in pools of five compounds per well. The pool’s composition maximized the difference in mass between fragments in the same well. Incubations were performed with each fragment at 200 μM, for 24 h at 4 °C, to allow the screening of proteins that are not stable for long time periods at higher temperatures. Following incubation, we used intact protein [compound left out] chromatography/mass spectrometry (LC/MS) to identify the fragments and quantify their labeling (Figure 3A). […] There was good agreement between the percent of labeling of NUDT7 by 100 random individual compounds and that obtained in pools of five (R^2=0.78; Figure S6 and Data set 2 in the Supporting Information).

For a further series, the target named is T2, OTUB2 (OTUB2A) (Homo sapiens, UniProt Q96DC9).
T2 construct: full length residues 1-234, E. coli BL21(DE3)-R3, His tag removed by TEV, construct 27312 Da
T2 sequence (Q96DC9 1-234): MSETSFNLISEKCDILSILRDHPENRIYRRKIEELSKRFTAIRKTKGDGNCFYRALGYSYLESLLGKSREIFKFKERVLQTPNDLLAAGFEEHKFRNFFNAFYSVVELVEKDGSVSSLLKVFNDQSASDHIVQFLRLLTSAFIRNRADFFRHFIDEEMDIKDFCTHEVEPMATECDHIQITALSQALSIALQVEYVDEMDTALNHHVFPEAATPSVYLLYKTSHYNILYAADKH
Further details: Intact protein LC/MS covalent labelling, fragments in pools of five, 200 uM each, 4 °C. Conditions: 24 h, 4 °C, pool of five; 200 µM; covalent. Here is the method:
as §1

A further series deals with T3, PCAF (Homo sapiens, UniProt Q92831).
T3 construct: gene KAT2B
Further details: Intact protein LC/MS covalent labelling, fragments in pools of five, 200 uM each, 4 °C. Conditions: 24 h, 4 °C, pool of five; 200 µM; covalent. Here is the method: as §1

Series [1] is described as follows: in vitro. Further details: species or system CCD841, HEK293. Conditions: human, hb2 cells, read-out: HB-2 Cells Viability (%).
Series [2] can be described thus: in vitro. Further details: species or system HB2, HEK293. Particulars: human, ccd841 cells.
Series [3] can be described thus: in vitro. Conditions: human, hek293 cells. Further details: species or system HB2, CCD841.
The target in a further series is T4, NUDT7 (Homo sapiens, UniProt P0C024).
T4 construct: residues 14-235, E. coli, pNIC28-Bsa4, N-terminal His6 tag removed by TEV, construct 26672 Da
Further details: Intact protein LC/MS covalent labelling, fragments in pools of five, 200 uM each, 4 °C. Particulars: 24 h, 4 °C, pool of five; 200 µM; covalent. As for the experimental part:
as §1

Like-named read-outs stand apart in the source and are kept apart here.

T1 sequence (P02769 whole entry): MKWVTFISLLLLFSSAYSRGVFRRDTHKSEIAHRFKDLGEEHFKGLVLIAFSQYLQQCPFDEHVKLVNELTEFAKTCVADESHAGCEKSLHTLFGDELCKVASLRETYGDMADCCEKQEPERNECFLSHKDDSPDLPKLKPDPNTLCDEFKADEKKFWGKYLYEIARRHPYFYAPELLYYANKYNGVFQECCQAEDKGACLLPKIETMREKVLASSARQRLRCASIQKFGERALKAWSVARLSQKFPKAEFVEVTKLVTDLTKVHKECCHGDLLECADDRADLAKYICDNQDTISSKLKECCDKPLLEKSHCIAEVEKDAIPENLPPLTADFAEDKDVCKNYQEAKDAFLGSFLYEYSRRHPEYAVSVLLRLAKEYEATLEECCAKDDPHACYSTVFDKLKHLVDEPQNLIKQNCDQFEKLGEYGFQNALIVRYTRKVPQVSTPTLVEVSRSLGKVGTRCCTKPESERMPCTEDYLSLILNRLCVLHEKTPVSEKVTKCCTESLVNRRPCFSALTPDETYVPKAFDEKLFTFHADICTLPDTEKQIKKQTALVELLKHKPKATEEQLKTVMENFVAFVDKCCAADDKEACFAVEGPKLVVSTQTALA
T4 sequence (P0C024 14-235): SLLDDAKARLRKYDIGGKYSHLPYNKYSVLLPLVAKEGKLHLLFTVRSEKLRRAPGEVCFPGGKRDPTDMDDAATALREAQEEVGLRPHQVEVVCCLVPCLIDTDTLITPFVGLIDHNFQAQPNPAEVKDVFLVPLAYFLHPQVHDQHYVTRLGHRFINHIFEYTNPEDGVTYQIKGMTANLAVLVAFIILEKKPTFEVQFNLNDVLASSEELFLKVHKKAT
T3 sequence (Q92831 whole entry): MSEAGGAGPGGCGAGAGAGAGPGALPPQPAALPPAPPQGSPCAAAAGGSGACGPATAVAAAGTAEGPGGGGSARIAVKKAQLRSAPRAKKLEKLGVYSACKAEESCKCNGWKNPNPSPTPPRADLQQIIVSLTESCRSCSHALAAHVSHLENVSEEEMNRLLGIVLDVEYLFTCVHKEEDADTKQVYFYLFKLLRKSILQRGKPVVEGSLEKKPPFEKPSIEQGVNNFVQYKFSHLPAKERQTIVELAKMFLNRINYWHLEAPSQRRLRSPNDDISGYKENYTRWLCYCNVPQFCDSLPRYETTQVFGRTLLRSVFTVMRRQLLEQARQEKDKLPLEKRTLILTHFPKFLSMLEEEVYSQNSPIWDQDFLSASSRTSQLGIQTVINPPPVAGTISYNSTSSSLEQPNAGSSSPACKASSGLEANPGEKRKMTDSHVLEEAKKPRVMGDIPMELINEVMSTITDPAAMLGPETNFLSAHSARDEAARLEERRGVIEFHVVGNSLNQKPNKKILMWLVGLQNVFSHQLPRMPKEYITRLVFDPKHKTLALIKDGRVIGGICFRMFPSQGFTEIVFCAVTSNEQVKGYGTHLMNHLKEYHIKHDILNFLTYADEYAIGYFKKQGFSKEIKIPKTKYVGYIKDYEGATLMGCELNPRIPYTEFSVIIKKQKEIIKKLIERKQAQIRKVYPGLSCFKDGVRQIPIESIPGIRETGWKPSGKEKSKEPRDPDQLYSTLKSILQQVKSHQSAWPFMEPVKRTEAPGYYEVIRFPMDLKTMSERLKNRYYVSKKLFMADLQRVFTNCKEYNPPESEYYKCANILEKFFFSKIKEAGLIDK

One may read the viability as a read-out of living cells in per cent, often relative to untreated cells. At BSA, `O=C(CCl)Nc1nncs1` [PCM-0102427] gave a BSA of 0. Further, at OTUB2 (OTUB2A), the OTUB2 is recorded as 0. Also, the PCAF at PCAF was found to be 0. Further, the viability at 48 h, 10 µM in the series “in vitro [1]” was determined as 89.6%; in “in vitro [2]”, 91%; in “in vitro [3]”, 99.2%.

`C=CC(=O)NC(C)(C)c1cc(C(F)(F)F)on1` [PCM-0102528] displayed a BSA at BSA of 0. At OTUB2 (OTUB2A), the OTUB2 is reported as 0. The same compound gave a PCAF at PCAF of 0. Besides, the viability at 48 h, 10 µM worked out at 99.9% in “in vitro [1]”, 109% in the series “in vitro [2]” and 104% in “in vitro [3]”.

At BSA, `C=CC(=O)N1C2CCC1CC(O)(Cc1ccc(F)cc1F)C2` (centres unmarked) [PCM-0102642] gave a BSA of 0. The same compound displayed an OTUB2 at OTUB2 (OTUB2A) of 0. At PCAF, the PCAF is 0. The results for the viability at 48 h, 10 µM in “in vitro [1]”, in “in vitro [2]” and in the series “in vitro [3]” were 102%, 103% and 92.5%, respectively.

In turn, `C=CC(=O)N=C1N=C2C=CC(I)=CN2Cc2ccccc21` [PCM-0102846] showed an OTUB2 on OTUB2 (OTUB2A) of 0. The compound also registered a PCAF at PCAF of 0. Also, the results for the viability at 48 h, 10 µM in “in vitro [1]”, in the series “in vitro [2]” and in the series “in vitro [3]” were 92.6%, 87.7% and 76.9%, respectively.

As to `CN(C)c1ccc(NC(=O)CCl)cc1.Cl` [PCM-0102859], the BSA on BSA was determined as 0.22. At NUDT7, the NUDT7 worked out at 0. Further, on PCAF, the PCAF is 0. The viability at 48 h, 10 µM turned out to be 105% in the series “in vitro [1]”, 110% in the series “in vitro [2]” and 87% in “in vitro [3]”.

On BSA, `C=CC(=O)N1CCCC(c2nc(C(F)(F)F)cn2C)C1` (centres unmarked) [PCM-0102633] gave a BSA of 0. The compound further had an NUDT7 at NUDT7 of 0. The compound further registered a PCAF on PCAF of 0. The viability at 48 h, 10 µM is 99.9% in the series “in vitro [1]”, 118% in the series “in vitro [2]” and 106% in “in vitro [3]”.

As to `CC(=O)c1sc2nc(C)cc(C)c2c1NC(=O)CCl` [PCM-0102108], the BSA at BSA is recorded as 0. In addition, on NUDT7, the NUDT7 is recorded as 0. The compound also displayed a PCAF at PCAF of 0. Moreover, the viability at 48 h, 10 µM amounted to 103% in “in vitro [1]”, 99% in the series “in vitro [2]” and 101% in the series “in vitro [3]”.

For `CC(=O)NC1CCCN(C(=O)CCl)C1` (centres unmarked) [PCM-0102934], on BSA, the BSA was 0. Also, at NUDT7, the NUDT7 was determined as 0. The same compound had a PCAF on PCAF of 0. In addition, the values for the viability at 48 h, 10 µM in the series “in vitro [1]”, in the series “in vitro [2]” and in “in vitro [3]” were 100%, 90% and 81.8%, respectively.

`Cc1cccc(N2CCN(C(=O)CCl)CC2)c1C` [PCM-0102215]: the BSA on BSA is 0. On NUDT7, this compound gave an NUDT7 of 0.29. For the same compound, the PCAF at PCAF came out at 0. The viability at 48 h, 10 µM in the series “in vitro [1]” worked out at 7.5%; in “in vitro [2]” it was 43.8%; in “in vitro [3]”, 11.1%.

On BSA, `N#Cc1cnn(-c2ccccc2)c1NC(=O)CCl` [PCM-0102225] yielded a BSA of 0. In addition, the NUDT7 on NUDT7 came out at 0.16. This compound came in with a PCAF at PCAF of 0. Besides, the viability at 48 h, 10 µM in “in vitro [1]” is 99%; in “in vitro [2]”, 81%; in the series “in vitro [3]” it was 91%.

On to `Cc1cc(NC(=O)CCl)ccc1Br` [PCM-0102770], for which the BSA on BSA is recorded as 0. At NUDT7, the NUDT7 turned out to be 0.21. At PCAF, the PCAF is 0. In addition, the values for the viability at 48 h, 10 µM in “in vitro [1]”, in the series “in vitro [2]” and in “in vitro [3]” were 2.5%, 15.6% and 1.6%, respectively.

Regarding `O=C(CCl)N1CCc2[nH]c3ccccc3c2C1` [PCM-0102591], the BSA on BSA is listed as 0. On NUDT7, this compound returned an NUDT7 of 0.22. This compound also had a PCAF on PCAF of 0. Further, the viability at 48 h, 10 µM in the series “in vitro [1]” was found to be 7.3%; in the series “in vitro [2]”, 61.8%; in the series “in vitro [3]” it was 7.5%.

Compound `Cc1ccc(NC(=O)CCl)c(Cl)c1` [PCM-0102408] displayed a BSA on BSA of 0. Moreover, on NUDT7, the NUDT7 came to 0.18. On PCAF, this compound showed a PCAF of 0. Moreover, the values for the viability at 48 h, 10 µM in “in vitro [1]”, in the series “in vitro [2]” and in “in vitro [3]” were 35.9%, 78.1% and 38.1%, respectively.

`O=C(CCl)Nc1ccc2[nH]c(C(F)(F)F)nc2c1` [PCM-0102151]: on BSA, the BSA worked out at 0. Also, the NUDT7 on NUDT7 is reported as 0.07. At PCAF, this compound gave a PCAF of 0. Also, the viability at 48 h, 10 µM in the series “in vitro [1]” was determined as 7.4%; in “in vitro [2]” it was 28%; in the series “in vitro [3]”, 1.3%.

Take `O=C(CCl)Nc1ccc2c(c1)OC1(CCCC1)O2` [PCM-0102801]: the BSA at BSA is recorded as 0. Also, the NUDT7 on NUDT7 came out at 0.1. In addition, the PCAF at PCAF is 0. For the same compound, the values for the viability at 48 h, 10 µM in “in vitro [1]”, in “in vitro [2]” and in “in vitro [3]” were 8.5%, 59.7% and 2.8%, respectively.

At BSA, `Cc1cccc([N+](=O)[O-])c1NC(=O)CCl` [PCM-0102176] came in with a BSA of 0. Moreover, the NUDT7 at NUDT7 came out at 0.22. The PCAF on PCAF stood at 0. Further, the viability at 48 h, 10 µM in “in vitro [1]” is 85.3%; in “in vitro [2]”, 71.7%; in “in vitro [3]”, 77.5%.

For the compound `Cc1ccc(C(=O)NNC(=O)CCl)cc1` [PCM-0102924], the BSA on BSA is on record as 0. The compound further showed an NUDT7 at NUDT7 of 0. The same compound had a PCAF on PCAF of 0. Also, the viability at 48 h, 10 µM in the series “in vitro [1]” turned out to be 97.6%; in “in vitro [2]”, 123%; in the series “in vitro [3]”, 268%.

`O=C(CCl)NC1CCC(C(F)(F)F)CC1` (centres unmarked) [PCM-0102864]: the BSA on BSA came out at 0. The NUDT7 at NUDT7 is 0. The same compound had a PCAF on PCAF of 0. For the same compound, the viability at 48 h, 10 µM in the series “in vitro [1]” was 99.2%; in the series “in vitro [2]”, 109%; in the series “in vitro [3]” it was 82.7%.

As to `C=CC(=O)NC1CCN(C(C)=O)Cc2cc(F)ccc21` (centres unmarked) [PCM-0102635], the BSA at BSA was found to be 0. Besides, the NUDT7 at NUDT7 is listed as 0. At PCAF, this compound registered a PCAF of 0. Further, the viability at 48 h, 10 µM worked out at 101% in “in vitro [1]”, 114% in the series “in vitro [2]” and 91.8% in “in vitro [3]”.

As to `COc1ccc(NC(=O)NC(=O)CCl)cc1` [PCM-0102268], on BSA, the BSA came to 0. In addition, the NUDT7 at NUDT7 is given as 0. In addition, the PCAF at PCAF is 0. For the same compound, the viability at 48 h, 10 µM came to 63.7% in the series “in vitro [1]”, 70.4% in “in vitro [2]” and 65% in “in vitro [3]”.

Consider `Cc1ccc(NC(=O)CCl)c(C)c1` [PCM-0103041], for which the BSA at BSA came out at 0. Moreover, the NUDT7 at NUDT7 is recorded as 0. The PCAF at PCAF was 0. Further, the figures for the viability at 48 h, 10 µM in the series “in vitro [1]”, in the series “in vitro [2]” and in “in vitro [3]” were 75.7%, 70.5% and 49.9%, respectively.

In turn, `Cc1cc(NC(=O)CCl)n(C)n1` [PCM-0102383] gave a BSA on BSA of 0. Also, on NUDT7, the NUDT7 is given as 0. On PCAF, this compound returned a PCAF of 0. The viability at 48 h, 10 µM is 64.5% in the series “in vitro [1]”, 54.4% in the series “in vitro [2]” and 31.2% in “in vitro [3]”.

Take `C=CC(=O)NC(C)(C)c1noc(C(C)(C)C)n1` [PCM-0102724]: the BSA on BSA is 0. On NUDT7, this compound displayed an NUDT7 of 0. In addition, the PCAF at PCAF came out at 0. Further, the viability at 48 h, 10 µM turned out to be 95.8% in the series “in vitro [1]”, 108% in “in vitro [2]” and 113% in the series “in vitro [3]”.

Take `CC1CCCCN1C(=O)CCl` (centres unmarked) [PCM-0102434]: at BSA, the BSA is reported as 0. The NUDT7 at NUDT7 was 0. The compound further yielded a PCAF at PCAF of 0. In addition, the viability at 48 h, 10 µM in “in vitro [1]” was 89.1%; in the series “in vitro [2]”, 82.7%; in the series “in vitro [3]”, 71.3%.
